Data on 1 molecule can be found in patent US9475789B2, “Use of polyenylpyrrole derivatives for treating inflammation” (WELLHEAD BIOLOGICAL TECHNOLOGY CORP., priority 2014, dated 2016).

In one test the test system is ROS. Nature of the test: Intracellular ROS production, ATP-activated J774A.1 macrophages. The test is classed as cell-based, murine. The protocol:
In (A), J774A.1 macrophages (1×10^6/ml) were incubated with LPS (1 μg/ml) for 5.5 h and then incubated with compound 1 h ([…]), DPI (100 μM), or DMSO (vehicle) for 30 min followed by ATP (5 mM) stimulating for the indicated time, then ROS levels were measured by detection of the fluorescence intensity of the fluorophore carboxyl-DCF and expressed relative to those at time zero. In (B), J774A.1 macrophages (1×10^6/ml) were incubated with compound 1h (20 μM), DPI (100 μM), or DMSO (vehicle) for 30 min followed by LPS (1 μg/ml) stimulating for 5.5 h, then the cells were stimulated with ATP (5 mM) for the indicated time. The ROS levels were measured by detection of the fluorescence intensity of the fluorophore carboxyl-DCF and expressed relative to those at time zero. In (C), LPS-primed J774A.1 macrophages (1×10^6/ml) were incubated with compound 1h (20 μM) or DMSO (vehicle) for 30 min followed by ATP (5 mM) stimulating for 0-60 min, then the phosphorylation level of PKC-α was analyzed by Western blot.
Intracellular ROS stimulated by LPS was measured by detecting the fluorescence intensity of the 2′,7′-dichlorofluorescein diacetate (H2DCFDA) oxidized product (DCF) (Molecular Probes, Eugene, Oreg.). […]

For the next test, the system named is COX-2. Nature of the test: Western blot of COX-2 protein in LPS-activated RAW 264.7 macrophages. The test is classed as cell-based, murine. On the procedure:
(§1) In (A) and (C), cells (5×10^5/ml) were incubated with polyenylpyrrole derivatives or DMSO (vehicle) for 30 min followed by stimulating with LPS (1 μg/ml) for 24 h, then NO (A), IL-6 and TNF-α (C) concentration in culture medium were assayed by Griess reaction and ELISA, respectively. In (B), cells (5×10^5/ml) were pretreated with polyenylpyrrole derivatives or DMSO for 30 min followed by stimulating with LPS (1 μg/ml) for 24 h, then the protein expression of iNOS and COX-2 were assayed by Western blot.
Whole cell lysates were separated by SDS-PAGE and electrotransferred to a PVDF membrane. The membranes were incubated in blocking solution—5% nonfat milk in phosphate buffered saline with 0.1% Tween 20—at room temperature for 1 h. Each membrane was incubated with a specific primary antibody at room temperature for 2 h. After washing three times in PBS with 0.1% Tween 20, the membrane was incubated with an HRP-conjugated secondary antibody directed against the primary antibody. The membrane was developed by an enhanced chemiluminescence Western blot detection system.
In general terms: A western blot detects proteins with antibodies after separation by electrophoresis.

The test system of another test is proIL-1β. Nature of the test: Western blot of proIL-1β, LPS-activated J774A.1 macrophages. The class given is cell-based, mouse. As to conditions: compound 30 min, then LPS 6 h. The protocol:
(A) J774A.1 macrophages (1×10^6/ml) and (B) peritoneal macrophages (1×10^5/ml) were incubated with compound 1h for 30 min followed by LPS (1 μg/ml) stimulating for 5.5 h, then the cells were stimulated with ATP (5 mM) for an additional 30 min. The IL-1β in the culture medium was measured by ELISA and the expression of active caspase-1 (p10) was measured by Western blot. In (C) and (D), J774A.1 macrophages (1×10^6/ml) were incubated with LPS (1 μg/ml) for 5.5 h, then cells were incubated with compound 1h for 30 min followed by stimulating with ATP (5 mM) for an additional 30 min. The IL-1β and IL-6 in the culture medium were measured by ELISA and the expression of active caspase-1 (p10) was measured by Western blot. In (E), J774A.1 macrophages (1×10^6/ml) were incubated with compound 1h for 30 min followed by LPS (1 μg/ml) stimulating for 6 h. The expression of NLRP3 and proIL-1β were measured by Western blot.
Whole cell lysates were separated by SDS-PAGE and electrotransferred to a PVDF membrane. The membranes were incubated in blocking solution—5% nonfat milk in phosphate buffered saline with 0.1% Tween 20—at room temperature for 1 h. Each membrane was incubated with a specific primary antibody at room temperature for 2 h. After washing three times in PBS with 0.1% Tween 20, the membrane was incubated with an HRP-conjugated secondary antibody directed against the primary antibody. […]

Test [1] concerns LPS-induced NO generation in RAW 264.7 macrophages. Nature of the test: NO inhibitory assay (Griess reaction) in LPS-activated macrophages. The class given is cell-based, murine. On the procedure: as §1, with “blot. […] RAW 264.7 cells were seeded in 24-well plates at a density of 5×10^5 cells/ml, and then incubated with or without LPS (1 μg/ml) in the absence or presence of tested samples for 24 h. The effects of the tested samples on NO production were measured indirectly by analysis of nitrite levels using the Griess reaction.” for “blot.”
(Nitrite, measured by Griess reagent, commonly stands in for NO production.)

SMILES strings stand for the structures. “Also recorded” adds a separate entry of the source.

With `O=c1cc(O)cc(/C=C/C=C/C=C/C=C/c2[nH]ccc2Cl)o1` [Compound 1h], the “ATP-induced ROS production” value is on record as “inhibited ATP-induced ROS production significantly” in the test with ROS (J774A.1, compound 1h 20 μM added before LPS priming) and “reduces ATP-induced ROS production slightly” in the test on ROS (LPS-primed J774A.1, compound 30 min before ATP stimulation). The COX-2 expression result in the test with COX-2 is given as “did not affect”. Further, in the test on proIL-1β, the “LPS-induced proIL-1β expression” value is recorded as “inhibited LPS-induced proIL-1β expression in a dose-dependent fashion”. Further, the EC50 in test [1] (Mus musculus, RAW264.7, 50% inhibition of the LPS-induced NO generation, RAW 264.7, LPS 1 μg/ml, 24 h, read-out: ED50 (the source's name)) was found to be 15 ± 2 µM. Moreover, the “production of NO by LPS-activated cells” value in test [1] (RAW 264.7, LPS 1 μg/ml 24 h, Griess reaction) is listed as “decreased production; also recorded: decreased the production of NO by LPS-activated cells in a dose-dependent manner”. Further, in test [1] (compound alone, no LPS, RAW 264.7, data not shown), the “background level of NO” value is reported as “did not alter”.
